# Measured values as given in patent US20260191196A1, “COMPOSITIONS AND METHODS FOR IMPROVING SOIL MICROBIAL POPULATIONS” (SYNGENTA CROP PROTECTION AG, priority 2022, published 2026).
# How the values were obtained:
# [1] = test system: beneficial bacterial species; test: Potato field trial: beneficial bacteria in soil (16S sequencing, differential abundance); type: in vivo, potato (Solanum tuberculosum L.)
# Description: (§1) In this experiment, assuming that biodiversity can be measured by the taxonomic richness and abundance of each taxon, the differences between treatments are determined and their effect on populations and beneficial species over time is verified. This leads to testing two hypotheses. Firstly, there is an impact of cyclobutrifluram applications on microbial diversity. Secondly, the use of cyclobutrifluram improves beneficial microbial diversity over time. These hypotheses were tested in two potato farms in the USA.
# The experiment was carried out in two potato (Solanum tuberculosum L.) fields located in two test locations in Louisiana, USA, described as locations A and B in Table 2. In each experimental field, three products were tested in an area of 10 m^2 (Table 3) and three replicates per product were established by complete block randomized. To evaluate the effects on the microbiome a “Check” plot (untreated) was established. In addition, fluopyram was employed as a comparative example. Fluopyram is a widely used fungicide and nematicide, and represents the industry standard herein.
# To analyse the microbial biodiversity, three soil samples were taken per treatment and each sample consisted of soil collected from three different points within the plots. In this way, the effect of soil variability was minimized, since there were nine samples per treatment. […]
# (§2) As set out above, to detect microbial community modifications in the soil microbiome associated with the cyclobutrifluram treatment, PCR amplification and successive high-throughput sequencing of bacterial and fungal taxonomical marker genes (the small-subunit ribosomal RNA gene (16S) and the ribosomal internal transcribed spacers (ITS) respectively) were performed on plant-associated soil samples. An exploratory data analysis was conducted to describe the microbial biodiversity and the behaviour of the percentage of the abundance of species under the evaluated factors. […]
# soil fungal community = test: Plant associated soil microbiome: fungal community by ITS amplicon sequencing; type: in vivo, tomato plants
# Text: Differential abundance of fungal taxa after 97 days in treated soil, as detected by PCR amplification and successive high-throughput sequencing of fungal taxonomical marker genes (the small-subunit ribosomal RNA gene (16S) and the ribosomal internal transcribed spacers (ITS) respectively) on plant-associated soil samples.
# To detect microbial community modifications in the soil microbiome associated with the cyclobutrifluram treatment against root knot nematodes, PCR amplification and successive high-throughput sequencing of bacterial and fungal taxonomical marker genes (the small-subunit ribosomal RNA gene (16S) and the ribosomal internal transcribed spacers (ITS) respectively) were performed on plant-associated soil samples.
# Comparison of the fungal community of Control and RKN-Cyclobutrifluram plant-associated 5 soil samples highlighted a microbiome shift mainly characterised by the reduction of the plant-pathogen Fusarium, an ubiquitous pathogenic fungus that constitutes an abundant taxon in control soil. Fusarium relative abundance results reduced from 17.8% in control samples to 7.5% after cyclobutrifluram treatment. Table 1b reports fungal genera detected by ITS gene amplicon sequencing with taxonomy assignment at genus level; relative abundance in Control and Cyclobutrifluram treated samples statistically significative (Deseq2, p=0.1), the relative abundance variation.
# [2] = test system: Trichoderma brevicompactum; test: Potato field trial: beneficial fungi in soil (ITS sequencing, differential abundance); type: in vivo, potato (Solanum tuberculosum L.); conditions: location B; 200 and 250 gai/ha
# Description: as §1
# The experiment was carried out in two potato (Solanum tuberculosum L.) fields located in two test locations in Louisiana, USA, described as locations A and B in Table 2. […]
# as §2
# [3] = Cyclobutrifluram treated plant-associated soil, RKN
smiles,measurement,setting,value
"O=C(N[C@@H]1CC[C@@H]1c1ccc(Cl)cc1Cl)c1cccnc1C(F)(F)F (racemic) [Cyclobutrifluram, cyclobutrifluram]",abundance of Bacillus halmapalus and B. cereus,[1]; T2 (60 days after treatment),increased significantly
same,"Sphingomonas species (S. sediminicola, S. japsi and S. daechungensis) abundance","[1]; location A in T3 (120 days after application), location B in T2 (60 days after application)",tend to increase significantly
same,Pseudomonas putida abundance,"[1]; location A, 200 and 250 gai/ha",significant increase
same,"Relative abundance, Acremonium",soil fungal community; [3],0.214%
same,"Relative abundance, Arthrinium",soil fungal community; [3],0.398%
same,"Relative abundance, Candida",soil fungal community; [3],0.839%
same,"Relative abundance, Chrysosporium",soil fungal community; [3],17.327%
same,"Relative abundance, Cladosporium",soil fungal community; [3],3.983%
same,"Relative abundance, Conostachys",soil fungal community; [3],0.797%
same,"Relative abundance, Eleutherascus",soil fungal community; [3],0.217%
same,"Relative abundance, Endoconidiophora",soil fungal community; [3],5.102%
same,"Relative abundance, Fusarium",soil fungal community; [3],7.544%
same,"Relative abundance, Humicola",soil fungal community; [3],0.000%
same,"Relative abundance, Lectera",soil fungal community; [3],1.767%
same,"Relative abundance, Monocillium",soil fungal community; [3],0.083%
same,"Relative abundance, Mortierella",soil fungal community; [3],2.111%
same,"Relative abundance, Mycosphaerella",soil fungal community; [3],1.672%
same,"Relative abundance, Oidiodendron",soil fungal community; [3],0.292%
same,"Relative abundance, Paraphoma",soil fungal community; [3],0.043%
same,"Relative abundance, Phialemonium",soil fungal community; [3],0.357%
same,"Relative abundance, Pseudaleuria",soil fungal community; [3],1.936%
same,"Relative abundance, Pseudogymnoascus",soil fungal community; [3],0.870%
same,"Relative abundance, Saitozyma",soil fungal community; [3],0.907%
same,"Relative abundance, Schwanniomyces",soil fungal community; [3],0.017%
same,"Relative abundance, Sebacina",soil fungal community; [3],0.077%
same,"Relative abundance, Solicoccozyma",soil fungal community; [3],0.407%
same,"Relative abundance, Tetracladium",soil fungal community; [3],0.318%
same,"Relative abundance, Verticillium",soil fungal community; [3],0.571%
same,"Relative abundance, Fusarium","soil fungal community; Cyclobutrifluram treated plant-associated soil, RKN, listed as cyclobutrifluram",7.5%
same,"relative abundance variation vs Control, Acremonium","soil fungal community; Deseq2, p=0.1",+0.056%
same,"relative abundance variation vs Control, Arthrinium","soil fungal community; Deseq2, p=0.1",+0.293%
same,"relative abundance variation vs Control, Candida","soil fungal community; Deseq2, p=0.1",−0.269%
same,"relative abundance variation vs Control, Chrysosporium","soil fungal community; Deseq2, p=0.1",+2.918%
same,"relative abundance variation vs Control, Cladosporium","soil fungal community; Deseq2, p=0.1",−1.949%
same,"relative abundance variation vs Control, Conostachys","soil fungal community; Deseq2, p=0.1",+0.132%
same,"relative abundance variation vs Control, Eleutherascus","soil fungal community; Deseq2, p=0.1",+0.108%
same,"relative abundance variation vs Control, Endoconidiophora","soil fungal community; Deseq2, p=0.1",+2.581%
same,"relative abundance variation vs Control, Fusarium","soil fungal community; Deseq2, p=0.1",−10.274%
same,"relative abundance variation vs Control, Humicola","soil fungal community; Deseq2, p=0.1",−0.112%
same,"relative abundance variation vs Control, Lectera","soil fungal community; Deseq2, p=0.1",+1.617%
same,"relative abundance variation vs Control, Monocillium","soil fungal community; Deseq2, p=0.1",+0.070%
same,"relative abundance variation vs Control, Mortierella","soil fungal community; Deseq2, p=0.1",−0.412%
same,"relative abundance variation vs Control, Mycosphaerella","soil fungal community; Deseq2, p=0.1",−0.541%
same,"relative abundance variation vs Control, Oidiodendron","soil fungal community; Deseq2, p=0.1",+0.054%
same,"relative abundance variation vs Control, Paraphoma","soil fungal community; Deseq2, p=0.1",−0.023%
same,"relative abundance variation vs Control, Phialemonium","soil fungal community; Deseq2, p=0.1",−0.044%
same,"relative abundance variation vs Control, Pseudaleuria","soil fungal community; Deseq2, p=0.1",+1.181%
same,"relative abundance variation vs Control, Pseudogymnoascus","soil fungal community; Deseq2, p=0.1",+0.550%
same,"relative abundance variation vs Control, Saitozyma","soil fungal community; Deseq2, p=0.1",−0.038%
same,"relative abundance variation vs Control, Schwanniomyces","soil fungal community; Deseq2, p=0.1",−0.005%
same,"relative abundance variation vs Control, Sebacina","soil fungal community; Deseq2, p=0.1",−0.027%
same,"relative abundance variation vs Control, Solicoccozyma","soil fungal community; Deseq2, p=0.1",+0.082%
same,"relative abundance variation vs Control, Tetracladium","soil fungal community; Deseq2, p=0.1",+0.088%
same,"relative abundance variation vs Control, Verticillium","soil fungal community; Deseq2, p=0.1",+0.156%
same,"effect on soil microbiome diversity (fungal taxa, FIG. 1)",soil fungal community; apart from inhibiting Fusarium,preserves soil microbiome diversity
same,relative abundance of the plant-pathogen Fusarium (in words),"soil fungal community; soil of tomato plants in presence of RKN infestation, medium-long term",substantially reduced
same,Trichoderma brevicompactum relative abundance,[2],significant enhancement
